Experimental data published in patent publication US5064852A, “Indolinone derivatives” (Pfizer Inc., priority 1990, dated 1991).

Tests used:
[1] = molecular target: T1, aldose reductase (Homo sapiens, UniProt P15121); test: inhibition of aldose reductase enzyme activity (procedure of S. Hayman et al. as modified by K. Sestanj et al.); assay type: biochemical; settings: for inhibition at 10 µM: 10^-5 M, partially purified aldose reductase from human placenta; for aldose reductase inhibitor potency (in words): no concentration given
T1 construct: partially purified aldose reductase enzyme obtained from human placenta; from tissue; host or cells: human placenta
Experimental: (§1) The activity of the compounds of the present invention, as agents for the control of chronic diabetic complications, is determined by their ability to successfully pass one or more of the following standard biological or pharmacological tests, viz., (1) measuring their ability to inhibit the enzyme activity of isolated aldose reductase; (2) measuring their ability to reduce or inhibit sorbitol accumulation in the sciatic nerve of acutely streptozotocinized (i.e., diabetic) rats; (3) measuring their ability to reverse already-elevated sorbitol levels in the sciatic nerve and lens of chronic streptozotocin-induced diabetic rats; (4) measuring their ability to prevent or inhibit galactitol formation in the lens of acutely galactosemic rats, and (5) measuring their ability to delay cataract formation and reduce the severity of lens opacities in chronic galactosemic rats.
The following oxindole-1-alkanoic acid final products of Examples 1-12, respectively, were tested at a concentration level of 10^-5 M for their ability to reduce or inhibit aldose reductase enzyme activity via the procedure of S. Hayman et al., as described in the Journal of Biological Chemistry, Vol. 240, p. 877 (1965) and as modified by K. Sestanj et al. in U.S. Pat. No. 3,821,383. In every case, the substrate employed was partially purified aldose reductase enzyme obtained from human placenta.

[2] = system: sorbitol levels in diabetic rats; test: inhibition of sorbitol formation in diabetic rats, oral route; assay type: in vivo, rat; settings: dose levels ranging from 0.75 mg./kg. to 20 mg./kg.
Source text: As previously indicated, the 3-substituted 2-oxo-indoline-1-alkanoic acid compounds of this invention are readily adapted to therapeutic use as aldose reductase inhibitors for the control of chronic diabetic complications, in view of their ability to reduce lens sorbitol levels in diabetic subjects to a statistically significant degree. […] Furthermore, the herein described compounds of this invention can be administered by either the oral or parenteral routes of administration. […]
as §1

| SMILES | inhibition at 10 µM [1] [%] | aldose reductase inhibitor potency (in words) [1] | inhibition of the formation of sorbitol levels in diabetic rats (in words) [2] |
| --- | --- | --- | --- |
| O=C(O)CN1C(=O)C(Cc2ccc(Cl)c(Cl)c2)(Cc2ccc(Cl)c(Cl)c2)c2ccccc21 [Example 10, 3,3-di(3,4-dichlorobenzyl)-2-oxo-indoline-1-acetic acid] | 20 |  |  |
| O=C(O)CN1C(=O)C2(Cc3ccccc3C2)c2ccccc21 [Example 8, 1,2-dihydro-spiro-inden[2,3']indolin-2'-one-1'-acetic acid] | 66 |  |  |
| COc1ccc2c(c1)N(CC(=O)O)C(=O)C2Cc1ccc(Cl)c(Cl)c1 (stereo not drawn) [Example 5, 3-(3,4-dichlorobenzyl)-6-methoxy-2-oxo-indoline-1-acetic acid] | 81 | highly potent |  |
| O=C(O)CN1C(=O)C2(Cc3ccc(Cl)cc3C2)c2ccccc21 (stereo not drawn) [Example 9, 5(6)-chloro-1,2-dihydro-spiro-inden[2,3']indolin-2'-one-1'-acetic acid] | 71 |  |  |
| CC(c1ccc(Cl)c(Cl)c1)C1(C)C(=O)N(CC(=O)O)c2ccccc21 (stereo not drawn) [Example 11, 3-(3,4-dichloro-α-methylbenzyl)-3-methyl-2-oxo-indoline-1-acetic acid] | 72 |  |  |
| COc1cc2c(cc1OC)N(CC(=O)O)C(=O)C2Cc1ccc(Cl)c(Cl)c1 (stereo not drawn) [Example 4, 3-(3,4-dichlorobenzyl)-5,6-dimethoxy-2-oxo-indoline-1-acetic acid] | 55 |  |  |
| CC(c1ccc(Cl)c(Cl)c1)C1C(=O)N(CC(=O)O)c2ccccc21 (stereo not drawn) [Example 7, 3-(3,4-dichloro-α-methylbenzyl)-2-oxo-indoline-1-acetic acid] | 94 | highly potent |  |
| CC(C(=O)O)N1C(=O)C(Cc2ccc(Cl)c(Cl)c2)c2ccccc21 (stereo not drawn) [Example 6, 3-(3,4-dichlorobenzyl)-2-oxo-indoline-1-(α-methyl)acetic acid] | 25 |  |  |

Now from value to compound, other results behind:

| inhibition at 10 µM [1] [%] | aldose reductase inhibitor potency (in words) [1] | SMILES | inhibition of the formation of sorbitol levels in diabetic rats (in words) [2] |
| --- | --- | --- | --- |
| 79 | highly potent | O=C(O)CN1C(=O)C(Cc2ccc(Cl)c(Cl)c2)c2ccc(O)cc21 (stereo not drawn) [Example 12, 3-(3,4-dichlorobenzyl)-6-hydroxy-2-oxo-indoline-1-acetic acid] |  |
| 92 | highly potent | O=C(O)CN1C(=O)C(Cc2ccc(Cl)c(Cl)c2)c2ccccc21 (stereo not drawn) [Example 1, 3-(3,4-dichlorobenzyl)-2-oxo-indoline-1-acetic acid] | significantly high degree |
| 68 |  | O=C(O)CN1C(=O)C(Cc2ccc(Cl)c(Cl)c2)c2ccc(F)cc21 (stereo not drawn) [Example 3, 3-(3,4-dichlorobenzyl)-6-fluoro-2-oxo-indoline-1-acetic acid] |  |
| 88 | highly potent | O=C(O)CN1C(=O)C(Cc2ccc(Cl)c(Cl)c2)c2cc(Cl)ccc21 (stereo not drawn) [Example 2, 5-chloro-3-(3,4-dichlorobenzyl)-2-oxo-indoline-1-acetic acid] |  |
